Measurements from ChEMBL document CHEMBL1154134, “Scalarane sesterterpenes from the sponge Smenospongia sp” (J Nat Prod, 2008).
Converted amounts (≈) assume the structure as drawn.

Experiments:
[1] = molecular target: Isocitrate lyase (Magnaporthe oryzae (strain 70-15 / FGSC 8958) (Rice blast fungus)(Pyricularia oryzae), UniProt P0CT06); test: Inhibition of Magnaporthe grisea isocitrate lyase; parameters: species or system Pyricularia grisea
[2] = test system: Micrococcus luteus; test: Antibacterial activity against Micrococcus luteus IFC 12708 after 24 hrs by twofold dilution method; type: functional; conditions: IFC 12708, 24 h
[3] = test system: Salmonella typhimurium; test: Antibacterial activity against Salmonella Typhimurium ATCC 14028 after 24 hrs by two-fold dilution method; type: functional, Salmonella enterica subsp. enterica serovar Typhimurium; conditions: Salmonella enterica, ATCC 14028, 24 h
[4] = test system: Staphylococcus aureus; test: Antibacterial activity against Staphylococcus aureus ATCC 65389 after 24 hrs by twofold dilution method; type: functional; conditions: ATCC 65389, 24 h
[5] = test system: Escherichia coli; test: Antibacterial activity against Escherichia coli ATCC 25922 after 24 hrs by twofold dilution method; type: functional; conditions: ATCC 25922, 24 h
[6] = test system: K562; test: Cytotoxicity against human K562 cells after 48 hrs by SRB assay; type: functional; conditions: K562, 48 h, read-out: LC50 (the source's name)
[7] = test system: Proteus vulgaris; test: Antibacterial activity against Proteus vulgaris ATCC 3851 after 24 hrs by twofold dilution method; type: functional; conditions: ATCC 3851, 24 h
[8] = test system: Bacillus subtilis; test: Antibacterial activity against Bacillus subtilis ATCC 6633 after 24 hrs by twofold dilution method; type: functional; conditions: ATCC 6633, 24 h

Sequence of Isocitrate lyase (P0CT06 whole entry): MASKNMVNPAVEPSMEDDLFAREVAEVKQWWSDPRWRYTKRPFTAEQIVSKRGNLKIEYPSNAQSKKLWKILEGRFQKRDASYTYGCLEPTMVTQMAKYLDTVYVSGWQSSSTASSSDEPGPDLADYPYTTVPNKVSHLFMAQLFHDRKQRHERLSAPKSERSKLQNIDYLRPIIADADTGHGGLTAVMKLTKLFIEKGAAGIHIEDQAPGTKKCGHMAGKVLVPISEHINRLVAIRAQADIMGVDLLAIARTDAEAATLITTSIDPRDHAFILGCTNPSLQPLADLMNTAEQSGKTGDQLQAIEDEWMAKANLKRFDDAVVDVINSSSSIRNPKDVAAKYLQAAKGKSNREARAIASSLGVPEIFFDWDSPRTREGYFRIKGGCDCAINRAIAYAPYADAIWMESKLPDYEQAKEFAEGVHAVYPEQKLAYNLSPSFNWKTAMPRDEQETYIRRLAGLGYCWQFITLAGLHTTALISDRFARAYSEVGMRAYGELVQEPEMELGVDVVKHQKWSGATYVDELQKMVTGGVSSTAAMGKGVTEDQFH

With `O=C(O)CC[N+](=O)[O-]` the IC50 [1] was 50.8 µM.
Molecule `COC(=O)C1=CC[C@@H]2[C@](C)(CC[C@H]3[C@@]2(C)CC[C@H]2C(C)(C)CCC[C@@]23COC(C)=O)[C@H]1C=O` has an MIC [2] of 12.5 µg/mL (≈ 27.3 µM), an MIC [3] of 12.5 µg/mL (≈ 27.3 µM) and an MIC [4] of 25 µg/mL (≈ 54.5 µM). The MIC [5] was over 100 µg/mL, the CC50 [6] was 8.6 µg/mL (≈ 18.8 µM) and the IC50 [1] was 120 µM. The MIC [7] was 6.25 µg/mL (≈ 13.6 µM) and the MIC [8] was 0.78 µg/mL (≈ 1.7 µM).
Work on `CC(=O)O[C@@H]1OC=C2[C@@H](OC(C)=O)C[C@@H]3[C@](C)(CC[C@H]4[C@@]3(C)CC[C@H]3C(C)(C)CCC[C@@]34CO)[C@H]21` yielded an MIC [2] of 100 µg/mL (≈ 205 µM), an MIC [3] of 6.25 µg/mL (≈ 12.8 µM) and an MIC [4] of over 100 µg/mL. The MIC [5] was over 100 µg/mL, the CC50 [6] was 0.13 µg/mL (≈ 0.266 µM) and the IC50 [1] was over 205 µM. For the same molecule, the MIC [7] was over 100 µg/mL and the MIC [8] was 0.78 µg/mL (≈ 1.6 µM).
`CC(=O)O[C@@H]1OC=C2[C@H]1[C@@]1(C)CC[C@H]3[C@@](C)(CC[C@H]4C(C)(C)CCC[C@]34C)[C@@H]1C[C@@H]2O` was tested, and the MIC [2] was over 100 µg/mL, the MIC [3] was 12.5 µg/mL (≈ 29 µM) and the MIC [4] was over 100 µg/mL. For the same molecule, the MIC [5] was over 100 µg/mL, the CC50 [6] was 5.8 µg/mL (≈ 13.5 µM) and the IC50 [1] was over 232 µM. It also gave an MIC [7] of over 100 µg/mL and an MIC [8] of 3.12 µg/mL (≈ 7.25 µM).
In the case of `CC1(C)CCC[C@@]2(CO)[C@H]1CC[C@]1(C)[C@@H]2CC[C@]2(C)c3cocc3CC[C@@H]12`, the MIC [2] is reported as 6.25 µg/mL (≈ 16.9 µM), the MIC [3] is reported as 12.5 µg/mL (≈ 33.7 µM) and the MIC [4] is reported as over 100 µg/mL. For the same molecule, the MIC [5] was over 100 µg/mL, the CC50 [6] was 0.97 µg/mL (≈ 2.62 µM) and the IC50 [1] was 123 µM. The MIC [7] was over 100 µg/mL and the MIC [8] was 1.56 µg/mL (≈ 4.21 µM).
With `CC1=C(O)/C(=C/[C@H](C)CC/C=C(/C)CCC/C=C(/C)CCc2ccoc2)OC1=O` the MIC [2] was 3.12 µg/mL (≈ 7.83 µM), the MIC [3] was 12.5 µg/mL (≈ 31.4 µM) and the MIC [4] was 6.25 µg/mL (≈ 15.7 µM). For the same molecule, the MIC [5] was over 100 µg/mL, the CC50 [6] was 7.3 µg/mL (≈ 18.3 µM) and the IC50 [1] was 78.3 µM. For the same molecule, the MIC [7] was 6.25 µg/mL (≈ 15.7 µM) and the MIC [8] was 6.25 µg/mL (≈ 15.7 µM).
`COC(=O)C1=CC[C@@H]2[C@](C)(CC[C@H]3[C@@]2(C)CC[C@H]2C(C)(C)CCC[C@@]23COC(C)=O)[C@@H]1C=O` was tested, and the MIC [2] was over 100 µg/mL, the MIC [3] was over 100 µg/mL and the MIC [4] was over 100 µg/mL. For the same molecule, the MIC [5] was over 100 µg/mL, the CC50 [6] was 3.7 µg/mL (≈ 8.07 µM) and the IC50 [1] was over 218 µM. For the same molecule, the MIC [7] was over 100 µg/mL and the MIC [8] was over 100 µg/mL.
With `CC1=C(O)/C(=C/[C@H](C)CCC/C(C)=C/CC/C(C)=C/CCc2ccoc2)OC1=O` the MIC [2] was 6.25 µg/mL (≈ 15.7 µM), the MIC [3] was 6.25 µg/mL (≈ 15.7 µM) and the MIC [4] was 12.5 µg/mL (≈ 31.4 µM). The MIC [5] was over 100 µg/mL, the CC50 [6] was 43.7 µg/mL (≈ 110 µM) and the IC50 [1] was 67.7 µM. The MIC [7] was 6.25 µg/mL (≈ 15.7 µM) and the MIC [8] was 6.25 µg/mL (≈ 15.7 µM).
With `CO[C@@H]1OCC2=CC[C@@H]3[C@](C)(CC[C@H]4[C@@]3(C)CC[C@H]3C(C)(C)CCC[C@@]34CO)[C@H]21` the MIC [2] was over 100 µg/mL, the MIC [3] was 6.25 µg/mL (≈ 15.5 µM) and the MIC [4] was over 100 µg/mL. The MIC [5] was over 100 µg/mL, the CC50 [6] was 0.11 µg/mL (≈ 0.273 µM) and the IC50 [1] was 104 µM. The MIC [7] was over 100 µg/mL and the MIC [8] was 50 µg/mL (≈ 124 µM).
In the case of `CC(=O)O[C@@H]1OC=C2[C@@H](OC(C)=O)C[C@@H]3[C@](C)(CC[C@H]4[C@@]3(C)CC[C@H]3C(C)(C)CCC[C@@]34C=O)[C@H]21`, the MIC [2] is reported as over 100 µg/mL, the MIC [3] is reported as over 100 µg/mL and the MIC [4] is reported as over 100 µg/mL. For the same molecule, the MIC [5] was over 100 µg/mL, the CC50 [6] was 17.5 µg/mL (≈ 36 µM) and the IC50 [1] was over 205 µM. It also gave an MIC [7] of over 100 µg/mL and an MIC [8] of over 100 µg/mL.
`CC(=O)OC[C@]12CCCC(C)(C)[C@@H]1CC[C@]1(C)[C@@H]2CC[C@]2(C)c3cocc3CC[C@@H]12` showed an MIC [2] of 25 µg/mL (≈ 60.6 µM), an MIC [3] of over 100 µg/mL and an MIC [4] of over 100 µg/mL. For the same molecule, the MIC [5] was over 100 µg/mL, the CC50 [6] was 2.3 µg/mL (≈ 5.57 µM) and the IC50 [1] was over 242 µM. It also gave an MIC [7] of over 100 µg/mL and an MIC [8] of 3.12 µg/mL (≈ 7.56 µM).
Molecule `C/C(=C\CC/C(C)=C/C[C@H](O)c1ccoc1)CC/C=C(\C)CC(=O)CC(C)C` has an MIC [2] of over 100 µg/mL, an MIC [3] of over 100 µg/mL and an MIC [4] of over 100 µg/mL. For the same molecule, the MIC [5] was over 100 µg/mL, the CC50 [6] was 5.7 µg/mL (≈ 14.7 µM) and the IC50 [1] was over 259 µM. For the same molecule, the MIC [7] was over 100 µg/mL and the MIC [8] was 6.25 µg/mL (≈ 16.2 µM).
`CC(=O)OC[C@]12CCCC(C)(C)[C@@H]1CC[C@@]1(C)[C@@H]3C[C@H](OC(C)=O)C4=CO[C@@H](OC(C)=O)[C@@H]4[C@@]3(C)CC[C@@H]12` showed an MIC [2] of over 100 µg/mL, an MIC [3] of over 100 µg/mL and an MIC [4] of over 100 µg/mL. For the same molecule, the MIC [5] was over 100 µg/mL, the CC50 [6] was 6.8 µg/mL (≈ 12.8 µM) and the IC50 [1] was over 188 µM. It also gave an MIC [7] of over 100 µg/mL and an MIC [8] of over 100 µg/mL.
In the case of `CC(=O)OC[C@]12CCCC(C)(C)[C@@H]1CC[C@@]1(C)[C@@H]3CC=C(C(=O)O)[C@@H](C=O)[C@@]3(C)CC[C@@H]12`, the MIC [2] is reported as over 100 µg/mL, the MIC [3] is reported as over 100 µg/mL and the MIC [4] is reported as over 100 µg/mL. The MIC [5] was over 100 µg/mL, the CC50 [6] was 4.2 µg/mL (≈ 9.45 µM) and the IC50 [1] was over 225 µM. For the same molecule, the MIC [7] was 100 µg/mL (≈ 225 µM) and the MIC [8] was over 100 µg/mL.
`CC1(C)S[C@@H]2[C@H](NC(=O)[C@H](N)c3ccccc3)C(=O)N2[C@H]1C(=O)O` [AMPICILLIN] was tested, and the MIC [2] was 1.56 µg/mL (≈ 4.46 µM), the MIC [3] was 3.12 µg/mL (≈ 8.93 µM) and the MIC [4] was 1.56 µg/mL (≈ 4.46 µM). For the same molecule, the MIC [5] was 12.5 µg/mL (≈ 35.8 µM), the MIC [7] was 3.12 µg/mL (≈ 8.93 µM) and the MIC [8] was 1.56 µg/mL (≈ 4.46 µM).
`COc1cccc2c1C(=O)c1c(O)c3c(c(O)c1C2=O)C[C@@](O)(C(=O)CO)C[C@@H]3O[C@H]1C[C@H](N)[C@H](O)[C@H](C)O1` [DOXORUBICIN] gave a CC50 [6] of 4.9 µg/mL (≈ 9.02 µM).
Molecule `CC(=O)O[C@@H]1OC(=O)C2=CC[C@@H]3[C@](C)(CC[C@H]4[C@@]3(C)CC[C@H]3C(C)(C)CCC[C@@]34CO)[C@H]21` has an MIC [2] of 3.12 µg/mL (≈ 7.02 µM), an MIC [3] of 6.25 µg/mL (≈ 14.1 µM) and an MIC [4] of over 100 µg/mL. The MIC [5] was over 100 µg/mL, the CC50 [6] was 22.5 µg/mL (≈ 50.6 µM) and the IC50 [1] was over 225 µM. For the same molecule, the MIC [7] was over 100 µg/mL and the MIC [8] was 1.56 µg/mL (≈ 3.51 µM).
